In US5087561A, “Humoral hypercalcemic factor antagonists modified at position 13 by biotin” (Merck & Co., Inc., priority 1990, dated 1992):

Key:
[1] = biological target: T1, PTH receptors (bovine renal cortical plasma membranes) (Bos taurus, UniProt Q1LZF7); assay: Bovine renal membrane binding assay; details: radioligand [Nle^8, 8, (^125 I)-Tyr^34 ]bPTH (1-34)NH2, 30 min, 21° C
T1 construct: from tissue; host or cells: bovine renal cortex plasma membranes
T1 sequence (Q1LZF7 29-589): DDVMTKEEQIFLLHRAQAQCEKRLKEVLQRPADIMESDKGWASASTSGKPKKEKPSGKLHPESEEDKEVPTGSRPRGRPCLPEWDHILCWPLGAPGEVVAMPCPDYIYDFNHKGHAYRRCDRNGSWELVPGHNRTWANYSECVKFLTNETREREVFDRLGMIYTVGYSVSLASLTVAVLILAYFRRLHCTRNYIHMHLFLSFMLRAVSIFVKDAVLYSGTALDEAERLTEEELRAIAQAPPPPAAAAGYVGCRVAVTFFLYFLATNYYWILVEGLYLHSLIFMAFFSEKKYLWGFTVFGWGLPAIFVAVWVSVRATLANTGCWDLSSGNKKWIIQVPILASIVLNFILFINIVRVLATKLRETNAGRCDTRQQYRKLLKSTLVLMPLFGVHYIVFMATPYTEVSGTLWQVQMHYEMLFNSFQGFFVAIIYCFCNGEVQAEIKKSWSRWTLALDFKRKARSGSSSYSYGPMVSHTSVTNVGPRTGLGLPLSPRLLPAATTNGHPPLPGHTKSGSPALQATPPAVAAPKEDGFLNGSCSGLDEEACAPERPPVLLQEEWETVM
Description: HCF analogues were analysed in a new receptor assay reported in Goldman et al., Endocrin 123: 1468-1475 (1988). The binding assay used [Nle^8, 8, (^125 I)-Tyr^34 ]bPTH (1-34)NH2 which was purified by HPLC (Novapak C18, 32-35% CH3 CN in 0.1% TFA) and was stored as aliquots in 25 mM TrisHCl/1%BSA at -70° C. Bovine renal cortical plasma membranes were incubated with radioligand (25,000 cpm) in a Tris-containing buffer (250 μl) for 30 min at room temperature 21° C. Once equilibrium was reached, bound and free radioligand were separated by centrifugation. High specific binding (85%) to bovine renal cortical membranes was obtained consistently.

[2] = tested on: adenylate cyclase, human osteosarcoma cell line, B10; assay: Human bone cell (B 10) adenylate cyclase assay; type: cell-based; details: inhibition of cAMP stimulation by lnM [Nle^8,18, Tyr^34 ] bPTH(1-34) NH2; B10 cells
Description: HCF analogues were analyzed in a human osteosarcoma cell line, B10, for the ability to inhibit cAMP stimulation by lnM [Nle^8,18, Tyr^34 ] bPTH(1-34) NH2 by the method described by R. J. Majeska et al, Endocrinol. 107, 1494 (1980).
Adenylate cyclase assay: Confluent cultures were rinsed in CMFH and scraped into 0.5-1.0 ml buffer (10 mM Tris-HCl, pH 7.8; 1 mM dithiothreitol, 0.2 mM MgCl2; and 0.5 mM EGTA) and homogenized with 10 strokes of a Dounce homogenizer (pestle A). Adenylate cyclase activity was measured by the method of Salomon et al., (18) on samples of either homogenate or membrane pellets obtained by centrifugation of diluted homogenates at 47,000×g for 30 min. The enzyme assay mix contained 0.1-0.3 mM [α-^32 P]ATP, MgCl2, and guanine nucelotides, as specified in the tables and FIGURES, and 1 mM cAMP, 5 mM phosphocreatine, and 100 U/ml creatine phosphokinase. Purified bovine PTH-(1-84), generously provided by Drs. H. Keutmann and M. Rosenblatt, Massachusetts General Hospital, Boston, MA, was dissolved and diluted in 1.5 ml/liter acetic acid containing 1 g/liter bovine serum albumin (Pentex fraction V, Miles Laboratories, Elkhart, IN). L-Isoproterenol bitarate (Sigma Chemical Co., St. Louis, MO) was prepared immediately before use and dissolved and diluted in assay buffer. Control tubes were assayed in the presence of diluent alone.

[3] = biological target: T2, PTH receptors (human bone cells) (Homo sapiens, UniProt Q03431); assay: Human bone cell binding assay; details: confluent monolayers, radioligand [Nle^8,18,(^125 I)-Tyr^34 ]bPTH(1-34)NH2, room temperature, 4 hours
T2 construct: endogenous in cells
T2 sequence (Q03431 27-593): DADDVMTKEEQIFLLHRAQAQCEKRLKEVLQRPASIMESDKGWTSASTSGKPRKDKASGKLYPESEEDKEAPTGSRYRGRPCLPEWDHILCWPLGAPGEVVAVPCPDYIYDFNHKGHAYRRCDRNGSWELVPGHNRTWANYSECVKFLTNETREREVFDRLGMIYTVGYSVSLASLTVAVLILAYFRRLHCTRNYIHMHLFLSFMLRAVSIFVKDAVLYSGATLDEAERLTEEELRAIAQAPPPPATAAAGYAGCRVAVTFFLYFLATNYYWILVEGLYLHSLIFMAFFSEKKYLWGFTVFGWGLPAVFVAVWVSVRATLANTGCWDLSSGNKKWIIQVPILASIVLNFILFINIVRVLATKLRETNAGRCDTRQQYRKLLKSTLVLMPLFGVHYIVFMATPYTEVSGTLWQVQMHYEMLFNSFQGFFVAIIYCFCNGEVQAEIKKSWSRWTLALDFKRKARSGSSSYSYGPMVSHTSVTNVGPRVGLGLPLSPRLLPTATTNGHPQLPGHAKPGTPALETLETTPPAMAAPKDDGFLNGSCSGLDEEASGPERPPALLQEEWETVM
Description: HCF analogues were analyzed in a new receptor binding assay as follows. Cells were plated in 24-well dishes in RPMl 1640 medium supplemented with 1% BSA, 20 mM HEPES, pH 7.5, and 0.1% azide. [Nle^8,18,(^125 I)-Tyr^34 ]bPTH(1-34)NH2 (50,000 cpm/well) was added to confluent monolayers in the absence or presence of varying concentrations of analogue under investigation in a final volume of 0.25 ml. Cultures were incubated at room temperature for 4 hours. Reactions were terminated by placing the cultures on ice and washing 4 times with ice cold PBS. Radioactivity associated with the cells was recovered by solubilizing the cells with 1 ml of 1N NaOH.

CC[C@H](C)[C@H](NC(=O)[C@H](CC(C)C)NC(=O)[C@H](Cc1c[nH]cn1)NC(=O)[C@H](Cc1c[nH]cn1)NC(=O)[C@H](CC(C)C)NC(=O)[C@H](Cc1ccccc1)NC(=O)[C@H](Cc1ccccc1)NC(=O)[C@H](CCCNC(=N)N)NC(=O)[C@H](CCCNC(=N)N)NC(=O)[C@H](CCCNC(=N)N)NC(=O)[C@H](CC(C)C)NC(=O)[C@H](CC(=O)O)NC(=O)[C@H](CCC(N)=O)NC(=O)[C@@H](NC(=O)[C@H](CO)NC(=O)[C@H](CCCCNC(=O)CCNC(=O)CCCC[C@@H]1SC[C@@H]2NC(=O)N[C@@H]21)NC(=O)[C@@H](Cc1c[nH]c2ccccc12)NC(=O)[C@H](CC(C)C)NC(=O)[C@H](CC(=O)O)NC(=O)[C@H](Cc1c[nH]cn1)NC(=O)[C@H](CC(C)C)NC(=O)[C@@H](N)CC(C)C)[C@@H](C)CC)C(=O)N[C@@H](C)C(=O)N[C@@H](CCC(=O)O)C(=O)N[C@H](C(=O)N[C@@H](Cc1c[nH]cn1)C(=O)N[C@H](C(=O)N[C@@H](C)C(N)=O)[C@@H](C)O)[C@@H](C)CC [[Leu^11,D-Trp^12,Lys^13 (ε-(N-biotinyl β-Ala))]hHCF(7-34)NH2]
Kb [1]: 22.6 nM
Ki [2]: 7.6 nM
Ki [3]: 37.3 nM
